Experimental data reported in patent US20230085307A1, “PYRIDAZINONE COMPOUND AND HERBICIDE” (NISSAN CHEMICAL CORPORATION, priority 2019, published 2023).

Experiments:
late watergrass = assay: Test Example 2: herbicidal activity, application during weed generation under submerged conditions (Table 17, symbol A); assay type: in vivo, late watergrass (Echinochloa oryzicola); details: application during weed generation, submerged conditions
In short: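 Mixed weed seedlings in alluvial soil under a 4 cm water layer, greenhouse-grown at 25–30° C. Compound given as a diluted emulsion into the floodwater at the 1–2 leaf stage; response graded after three weeks.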

blackgrass [1] = assay: Test Example 5: herbicidal effect by foliage application, plastic box (Table 20, symbol J); assay type: in vivo, blackgrass (Alopecurus myosuroides); details: foliage application, 3 weeks after application
In short: (§1)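 Foliar spray test: emulsion formulation diluted in water to a set application rate, sprayed onto 14-day-old plants raised in diluvial soil at 25° C to 30° C under glass. Both herbicidal effect and crop effect rated visually three weeks later.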

barnyard grass [2] = assay: Test Example 5: herbicidal effect by foliage application, plastic box (Table 20, symbol H); assay type: in vivo, barnyard grass (Echinochloa crus-galli); details: foliage application, 3 weeks after application
In short: as §1

Chinese sprangletop = assay: Test Example 3: herbicidal effect by foliage application, Wagner pot (Table 18, symbol D); assay type: in vivo, chinese sprangletop (Leptochloa chinensis)
In short: (§2)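 Plants were sown in alluvial soil held under 0.1–0.5 cm standing water and grown 14 days in a greenhouse at 25–30 °C. An emulsifiable formulation, water-diluted to the set dose, was then sprayed onto the foliage, and effects were scored three weeks later using previously defined criteria.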

wild oat = assay: Test Example 5: herbicidal effect by foliage application, plastic box (Table 20, symbol I); assay type: in vivo, wild oat (Avena fatua); details: foliage application, 3 weeks after application
In short: as §1

chickweed = assay: Test Example 4: herbicidal effect by soil treatment (Table 19, symbol P); assay type: in vivo, common chickweed (Stellaria media)
In short: (§3)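 Step 1: sow seeds in sterilized diluvial soil, cover ~1.5 cm. Step 2: spray diluted emulsion onto soil surface at predetermined rate. Step 3: greenhouse, 25–30° C, three weeks. Step 4: grade effect on each plant by earlier criteria.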

persian speedwell = assay: Test Example 5: herbicidal effect by foliage application, plastic box (Table 20, symbol R); assay type: in vivo, Persian speedwell (Veronica persica); details: foliage application, 3 weeks after application
In short: as §1

southern crabgrass = assay: Test Example 4: herbicidal effect by soil treatment (Table 19, symbol F); assay type: in vivo, southern crabgrass (Digitaria ciliaris)
In short: as §3

lambsquarters = assay: Test Example 4: herbicidal effect by soil treatment (Table 19, symbol O); assay type: in vivo, lambsquarters (Chenopodium album)
In short: as §3

barnyard grass [3] = assay: Test Example 3: herbicidal effect by foliage application, Wagner pot (Table 18, symbol H); assay type: in vivo, barnyard grass (Echinochloa crus-galli)
In short: as §2

barnyard grass [4] = assay: Test Example 4: herbicidal effect by soil treatment (Table 19, symbol H); assay type: in vivo, barnyard grass (Echinochloa crus-galli)
In short: as §3

redroot pigweed = assay: Test Example 4: herbicidal effect by soil treatment (Table 19, symbol N); assay type: in vivo, redroot pigweed (Amaranthus retroflexus)
In short: as §3

blackgrass [5] = assay: Test Example 4: herbicidal effect by soil treatment (Table 19, symbol J); assay type: in vivo, blackgrass (Alopecurus myosuroides)
In short: as §3

velvetleaf = assay: Test Example 5: herbicidal effect by foliage application, plastic box (Table 20, symbol M); assay type: in vivo, velvetleaf (Abutilon theophrasti); details: foliage application, 3 weeks after application
In short: as §1

Italian ryegrass = assay: Test Example 5: herbicidal effect by foliage application, plastic box (Table 20, symbol K); assay type: in vivo, Italian ryegrass (Lolium multiflorum); details: foliage application, 3 weeks after application
In short: as §1

Compound | herbicidal effect rating, A: late watergrass (late watergrass; AAH 320 g/ha) | effect on blackgrass (J) (blackgrass [1]; 320 g/ha) | effect on barnyard grass (H) (barnyard grass [2]; 320 g/ha) | herbicidal effect on D (Chinese sprangletop), rating 0-5 (Chinese sprangletop; 320 g/ha) | effect on wild oat (I) (wild oat; 320 g/ha) | herbicidal effect rating, P: chickweed (chickweed; 320 g/ha) | effect on persian speedwell (R) (persian speedwell; 320 g/ha) | herbicidal effect rating, F: southern crabgrass (southern crabgrass; 320 g/ha) | herbicidal effect rating, O: lambsquarters (lambsquarters; 320 g/ha) | herbicidal effect on H (barnyard grass), rating 0-5 (barnyard grass [3]; 320 g/ha) | herbicidal effect rating, H: barnyard grass (barnyard grass [4]; 320 g/ha) | herbicidal effect rating, N: redroot pigweed (redroot pigweed; 320 g/ha) | herbicidal effect rating, J: blackgrass (blackgrass [5]; 320 g/ha) | effect on velvetleaf (M) (velvetleaf; 320 g/ha) | effect on Italian ryegrass (K) (Italian ryegrass; 320 g/ha) | also measured
Cc1ccc(-c2sc3ccc(F)cc3c2-c2c(O)c(C)nn(C)c2=O)cc1 [2-012] | 3 (Herbicidal rate of 40% or more and less than 70%) | 4 (Herbicidal rate of 70% or more and less than 90%) | 4 (Herbicidal rate of 70% or more and less than 90%) | 5 (Herbicidal rate of 90% or more (almost completely withered)) | 0 (Herbicidal rate of 5% or less (almost no effect)) | 4 (Herbicidal rate of 70% or more and less than 90%) | 5 (Herbicidal rate of 90% or more (almost completely withered)) | 5 (Herbicidal rate of 90% or more (almost completely withered)) | 5 (Herbicidal rate of 90% or more (almost completely withered)) | 5 (Herbicidal rate of 90% or more (almost completely withered)) | 5 (Herbicidal rate of 90% or more (almost completely withered)) | 5 (Herbicidal rate of 90% or more (almost completely withered)) | 0 (Herbicidal rate of 5% or less (almost no effect)) | 5 (Herbicidal rate of 90% or more (almost completely withered)) | 4 (Herbicidal rate of 70% or more and less than 90%) | 
CCCC(=O)Oc1c(C)nn(C)c(=O)c1-c1c(-c2ccc(C)cc2)sc2ccc(F)cc12 [2-013] | 4 (Herbicidal rate of 70% or more and less than 90%) | 1 (Herbicidal rate of 5% or more and less than 20%) | 5 (Herbicidal rate of 90% or more (almost completely withered)) | 5 (Herbicidal rate of 90% or more (almost completely withered)) | 0 (Herbicidal rate of 5% or less (almost no effect)) | 3 (Herbicidal rate of 40% or more and less than 70%) | 5 (Herbicidal rate of 90% or more (almost completely withered)) | 5 (Herbicidal rate of 90% or more (almost completely withered)) | 5 (Herbicidal rate of 90% or more (almost completely withered)) | 5 (Herbicidal rate of 90% or more (almost completely withered)) | 4 (Herbicidal rate of 70% or more and less than 90%) | 4 (Herbicidal rate of 70% or more and less than 90%) | 3 (Herbicidal rate of 40% or more and less than 70%) | 5 (Herbicidal rate of 90% or more (almost completely withered)) | 4 (Herbicidal rate of 70% or more and less than 90%) | 
COc1ccc(-c2sc3ccc(F)cc3c2-c2c(O)c(C)nn(C)c2=O)cc1 [2-026] | 1 (Herbicidal rate of 5% or more and less than 20%) | 4 (Herbicidal rate of 70% or more and less than 90%) | 5 (Herbicidal rate of 90% or more (almost completely withered)) | 4 (Herbicidal rate of 70% or more and less than 90%) | 5 (Herbicidal rate of 90% or more (almost completely withered)) | 4 (Herbicidal rate of 70% or more and less than 90%) | 5 (Herbicidal rate of 90% or more (almost completely withered)) | 4 (Herbicidal rate of 70% or more and less than 90%) | 5 (Herbicidal rate of 90% or more (almost completely withered)) | 5 (Herbicidal rate of 90% or more (almost completely withered)) | 4 (Herbicidal rate of 70% or more and less than 90%) | 5 (Herbicidal rate of 90% or more (almost completely withered)) | 3 (Herbicidal rate of 40% or more and less than 70%) | 5 (Herbicidal rate of 90% or more (almost completely withered)) | 4 (Herbicidal rate of 70% or more and less than 90%) | 
CCCC(=O)Oc1c(C)nn(C)c(=O)c1-c1c(-c2ccccc2OCC)sc2ccc(F)cc12 [2-029] |  |  |  |  |  |  |  |  |  |  |  |  |  |  |  | herbicidal effect rating, A: late watergrass (late watergrass; AAH 266 g/ha): 3 (Herbicidal rate of 40% or more and less than 70%); effect on blackgrass (J) (blackgrass [1]; 266 g/ha): 1 (Herbicidal rate of 5% or more and less than 20%); effect on barnyard grass (H) (barnyard grass [2]; 266 g/ha): 5 (Herbicidal rate of 90% or more (almost completely withered)); herbicidal effect on D (Chinese sprangletop), rating 0-5 (Chinese sprangletop; 266 g/ha): 3 (Herbicidal rate of 40% or more and less than 70%); effect on wild oat (I) (wild oat; 266 g/ha): 3 (Herbicidal rate of 40% or more and less than 70%); herbicidal effect rating, P: chickweed (chickweed; 266 g/ha): 3 (Herbicidal rate of 40% or more and less than 70%); effect on persian speedwell (R) (persian speedwell; 266 g/ha): 5 (Herbicidal rate of 90% or more (almost completely withered)); herbicidal effect rating, F: southern crabgrass (southern crabgrass; 266 g/ha): 3 (Herbicidal rate of 40% or more and less than 70%); herbicidal effect rating, O: lambsquarters (lambsquarters; 266 g/ha): 4 (Herbicidal rate of 70% or more and less than 90%); herbicidal effect on H (barnyard grass), rating 0-5 (barnyard grass [3]; 266 g/ha): 5 (Herbicidal rate of 90% or more (almost completely withered)); herbicidal effect rating, H: barnyard grass (barnyard grass [4]; 266 g/ha): 3 (Herbicidal rate of 40% or more and less than 70%); herbicidal effect rating, N: redroot pigweed (redroot pigweed; 266 g/ha): 4 (Herbicidal rate of 70% or more and less than 90%); herbicidal effect rating, J: blackgrass (blackgrass [5]; 266 g/ha): 0 (Herbicidal rate of 5% or less (almost no effect)); effect on velvetleaf (M) (velvetleaf; 266 g/ha): 5 (Herbicidal rate of 90% or more (almost completely withered)); effect on Italian ryegrass (K) (Italian ryegrass; 266 g/ha): 2 (Herbicidal rate of 20% or more and less than 40%)
CCCOc1ccc(-c2sc3ccc(F)cc3c2-c2c(O)c(C)nn(C)c2=O)cc1 [2-032] | 1 (Herbicidal rate of 5% or more and less than 20%) | 5 (Herbicidal rate of 90% or more (almost completely withered)) | 5 (Herbicidal rate of 90% or more (almost completely withered)) | 3 (Herbicidal rate of 40% or more and less than 70%) | 3 (Herbicidal rate of 40% or more and less than 70%) | 4 (Herbicidal rate of 70% or more and less than 90%) | 5 (Herbicidal rate of 90% or more (almost completely withered)) | 2 (Herbicidal rate of 20% or more and less than 40%) | 5 (Herbicidal rate of 90% or more (almost completely withered)) | 5 (Herbicidal rate of 90% or more (almost completely withered)) | 2 (Herbicidal rate of 20% or more and less than 40%) | 5 (Herbicidal rate of 90% or more (almost completely withered)) | 0 (Herbicidal rate of 5% or less (almost no effect)) | 5 (Herbicidal rate of 90% or more (almost completely withered)) | 4 (Herbicidal rate of 70% or more and less than 90%) | 
